biological target: T1, STAT6 (Homo sapiens, UniProt P42226); test: Inhibition of STAT6 binding (duplex formation); conditions: Table 1; inhibitors of STAT6 binding (duplex formation)
T1 sequence (P42226 1-847): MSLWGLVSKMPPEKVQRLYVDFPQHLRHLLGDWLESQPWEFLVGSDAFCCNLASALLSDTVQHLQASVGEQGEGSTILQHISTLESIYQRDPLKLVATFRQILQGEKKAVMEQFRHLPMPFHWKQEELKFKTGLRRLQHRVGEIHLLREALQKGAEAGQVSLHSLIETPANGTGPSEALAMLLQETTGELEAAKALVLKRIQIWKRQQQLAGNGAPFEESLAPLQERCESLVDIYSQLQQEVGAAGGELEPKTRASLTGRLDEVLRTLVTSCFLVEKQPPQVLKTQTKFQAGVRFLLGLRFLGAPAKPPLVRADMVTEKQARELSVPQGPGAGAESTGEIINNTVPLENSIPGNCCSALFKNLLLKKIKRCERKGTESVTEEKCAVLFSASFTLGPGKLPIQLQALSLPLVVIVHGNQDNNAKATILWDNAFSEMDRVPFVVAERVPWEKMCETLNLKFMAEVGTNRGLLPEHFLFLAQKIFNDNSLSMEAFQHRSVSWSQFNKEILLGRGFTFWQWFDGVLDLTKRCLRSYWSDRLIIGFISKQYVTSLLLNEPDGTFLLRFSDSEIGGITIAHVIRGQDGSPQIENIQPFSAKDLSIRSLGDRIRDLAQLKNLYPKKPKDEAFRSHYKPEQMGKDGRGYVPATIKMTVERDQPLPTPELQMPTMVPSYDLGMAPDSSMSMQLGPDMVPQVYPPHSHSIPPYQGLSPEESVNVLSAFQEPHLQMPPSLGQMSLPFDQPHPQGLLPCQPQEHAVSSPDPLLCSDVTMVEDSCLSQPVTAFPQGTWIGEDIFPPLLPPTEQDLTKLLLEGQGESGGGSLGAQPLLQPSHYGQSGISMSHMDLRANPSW
Description: The compounds of the present invention can be evaluated for STAT binding activity using methods such as those described in U.S. Pat. No. 6,207,391 (for STAT6 binding). Other assays for STAT binding can be found in, for example, U.S. Pat. Nos. 5,618,693, 5,639,858 and 5,756,700.
Using methods similar to those described in Examples 1 and 2, the compounds provided in Table 1 were prepared and evaluated as inhibitors of STAT6 binding (duplex formation). The assay is described in U.S. Pat. No. 6,207,391, filed Mar. 31, 1998. In each of the tables below: a + symbol indicates and IC50 of >100 μM; a ++ symbol indicates and IC50 of 50-100 μM; a +++ symbol indicates and IC50 of 1-50 μM; and a ++++ symbol indicates and IC50 of <1.0 μM.

SMILES | IC50 [nM]
CC(=O)N[C@H]1C[C@@H](C(=O)N(Cc2ccccc2)c2ccc(C(N)=O)cc2)N(C(=O)[C@@H](NC(=O)/C=C/c2ccc(C(O)C(=O)O)cc2)C(C)(C)C)C1 (some centres unmarked) [drawing 46: —NHAC, H, 4-CONH2, H] | 1000 to 50000
CC(C)(C)[C@H](NC(=O)/C=C/c1ccc(C(O)C(=O)O)cc1)C(=O)N1C[C@H](NS(C)(=O)=O)C[C@H]1C(=O)N(Cc1ccccc1)c1ccc(C(N)=O)cc1 (some centres unmarked) [drawing 46: H, —NHSO2CH3,4-CONH2, H] | 1000 to 50000
CC(=O)N[C@@H]1C[C@@H](C(=O)N(Cc2ccccc2)c2ccc(C(N)=O)cc2)N(C(=O)[C@@H](NC(=O)/C=C/c2ccc(C(O)C(=O)O)cc2)C(C)(C)C)C1 (some centres unmarked) [drawing 46: H, —NHAc, 4-CONH2, H] | 1000 to 50000
CC(C)(C)[C@H](NC(=O)/C=C/c1ccc(C(O)C(=O)O)cc1)C(=O)N1C[C@H](NC(=O)OCc2ccccc2)C[C@H]1C(=O)N(Cc1ccccc1)c1ccc(C(N)=O)cc1 (some centres unmarked) [drawing 46: H, —NHCO2Bn, 4-CONH2, H] | 1000 to 50000
CN(C)[C@@H]1C[C@@H](C(=O)N(Cc2ccccc2)c2ccc(C(N)=O)cc2)N(C(=O)[C@@H](NC(=O)/C=C/c2ccc(C(O)C(=O)O)cc2)C(C)(C)C)C1 (some centres unmarked) [drawing 46: H, —N(CH3)2,4-CONH2, H] | 50000 to 100000
CC(C)(C)[C@H](NC(=O)/C=C/c1ccc(C(O)C(=O)O)cc1)C(=O)N1CCC[C@H]1C(=O)N(Cc1ccccc1)c1ccc(C(=O)Nc2ccccc2)cc1 (some centres unmarked) [drawing 46: H, H, 4-CONHPh, H] | > 100000
CC(C)(C)[C@H](NC(=O)/C=C/c1ccc(C(O)C(=O)O)cc1)C(=O)N1C[C@H](N(Cc2ccccc2)Cc2ccccc2)C[C@H]1C(=O)N(Cc1ccccc1)c1ccc(C(N)=O)cc1 (some centres unmarked) [drawing 46: H, —N(Bn)2,4-CONH2, H] | > 100000
CC(C)(C)[C@H](NC(=O)/C=C/c1ccc(C(O)C(=O)O)cc1)C(=O)N1CCC[C@H]1C(=O)N(Cc1ccc(CN)cc1)c1ccc(C(N)=O)cc1 (some centres unmarked) [drawing 46: H, H, 4-CONH2,4-CH2NH2] | 1000 to 50000

same assay, conditions: Table 2; STAT6 binding

SMILES | IC50 [nM]
CC(C)(C)[C@H](NC(=O)/C=C/c1ccc(C(=O)O)cn1)C(=O)N1CCC[C@H]1C(=O)N(c1ccccc1)c1ccc(C(N)=O)cc1 | > 100000
CC(C)(C)[C@H](NC(=O)/C=C/c1ccc(OC(F)(C(=O)O)C(=O)O)cc1)C(=O)N1CCC[C@H]1C(=O)N(c1ccccc1)c1ccc(C(N)=O)cc1 | 1000 to 50000
CC(C)(C)[C@H](NC(=O)/C=C/c1ccc(CC(=O)O)cc1)C(=O)N1CCC[C@H]1C(=O)N(c1ccccc1)c1ccc(C(N)=O)cc1 | > 100000
CC(C)(C)[C@H](NC(=O)/C=C/c1cccc(C(=O)O)c1)C(=O)N1CCC[C@H]1C(=O)N(c1ccccc1)c1ccc(C(N)=O)cc1 | > 100000
CC(C)(C)[C@H](NC(=O)/C=C/c1cccc(CC(=O)O)c1)C(=O)N1CCC[C@H]1C(=O)N(c1ccccc1)c1ccc(C(N)=O)cc1 | > 100000
CC(C)(C)[C@H](NC(=O)/C=C/c1ccc(P(=O)(O)O)c(O)c1)C(=O)N1CCC[C@H]1C(=O)N(c1ccccc1)c1ccc(C(N)=O)cc1 | 1000 to 50000
COc1cc(/C=C/C(=O)N[C@H](C(=O)N2CCC[C@H]2C(=O)N(c2ccccc2)c2ccc(C(N)=O)cc2)C(C)(C)C)ccc1P(=O)(O)O | 1000 to 50000
CC(C)(C)[C@H](NC(=O)/C=C/c1ccc(C(=O)O)c(C(=O)O)c1)C(=O)N1CCC[C@H]1C(=O)N(c1ccccc1)c1ccc(C(N)=O)cc1 | 1000 to 50000
CC(C)(C)[C@H](NC(=O)/C=C/c1ccc(C(=O)O)cc1)C(=O)N1CCC[C@H]1C(=O)N(c1ccccc1)c1ccc(C(N)=O)cc1 | > 100000
CC(C)(C)[C@H](NC(=O)/C=C/c1ccc(C(F)(F)P(=O)(O)O)cc1)C(=O)N1CCC[C@H]1C(=O)N(c1ccccc1)c1ccc(C(N)=O)cc1 | < 1000
CC(C)(C)[C@H](NC(=O)/C=C/c1ccc(CP(=O)(O)O)cc1)C(=O)N1CCC[C@H]1C(=O)N(c1ccccc1)c1ccc(C(N)=O)cc1 | 1000 to 50000
CC(C)(C)[C@H](NC(=O)/C=C/c1ccc(C(O)P(=O)(O)O)cc1)C(=O)N1CCC[C@H]1C(=O)N(c1ccccc1)c1ccc(C(N)=O)cc1 (some centres unmarked) | 1000 to 50000
CC(C)(C)[C@H](NC(=O)/C=C/c1cccc(CP(=O)(O)O)c1)C(=O)N1CCC[C@H]1C(=O)N(c1ccccc1)c1ccc(C(N)=O)cc1 | > 100000
CC(C)(C)[C@H](NC(=O)/C=C/c1ccc(OCC(=O)O)cc1)C(=O)N1CCC[C@H]1C(=O)N(c1ccccc1)c1ccc(C(N)=O)cc1 | > 100000

same assay, conditions: Table 3; STAT6 binding

SMILES | IC50 [nM]
COc1ccc(N(C(=O)C2CCCN2C(=O)C(NC(=O)C=Cc2ccc(OP(=O)(O)O)cc2)C(C)(C)C)c2ccccc2)cc1 (centres unmarked) [drawing 69: OCH3] | < 1000
COC(=O)c1ccc(N(C(=O)C2CCCN2C(=O)C(NC(=O)C=Cc2ccc(OP(=O)(O)O)cc2)C(C)(C)C)c2ccccc2)cc1 (centres unmarked) [drawing 69: CO2CH3] | < 1000
CC(C)(C)C(NC(=O)C=Cc1ccc(OP(=O)(O)O)cc1)C(=O)N1CCCC1C(=O)N(c1ccccc1)c1ccc(C(=O)O)cc1 (centres unmarked) [drawing 69: CO2H] | 1000 to 50000
CC(C)(C)C(NC(=O)C=Cc1ccc(OP(=O)(O)O)cc1)C(=O)N1CCCC1C(=O)N(c1ccccc1)c1ccc(C(N)=O)cc1 (centres unmarked) [drawing 69: CONH2] | < 1000
CC(C)(C)C(NC(=O)C=Cc1ccc(OP(=O)(O)O)cc1)C(=O)N1CCCC1C(=O)N(c1ccccc1)c1ccc(Cl)cc1 (centres unmarked) [drawing 69: Cl] | < 1000
CC(C)(C)C(NC(=O)C=Cc1ccc(OP(=O)(O)O)cc1)C(=O)N1CCCC1C(=O)N(c1ccccc1)c1ccccc1 (centres unmarked) [drawing 69: H] | < 1000

same assay, conditions: Table 4; STAT6 binding

SMILES | IC50 [nM]
CC(C)(C)C(NC(=O)C=Cc1ccc(OP(=O)(O)O)cc1)C(=O)N1CCCC1C(=O)N(Cc1ccc(I)cc1)c1ccccc1 (centres unmarked) [drawing 70: H, 4-I] | < 1000
CC(=O)NCc1cccc(N(Cc2ccc(C(N)=O)cc2)C(=O)C2CCCN2C(=O)C(NC(=O)C=Cc2ccc(OP(=O)(O)O)cc2)C(C)(C)C)c1 (centres unmarked) [drawing 70: 3-CH2NHAc, 4-CONH2] | < 1000
CC(=O)NCc1ccc(CN(C(=O)C2CCCN2C(=O)C(NC(=O)C=Cc2ccc(OP(=O)(O)O)cc2)C(C)(C)C)c2cccc(C(N)=O)c2)cc1 (centres unmarked) [drawing 70: 3-CONH2,4-CH2NHAc] | < 1000
CC(=O)NCc1ccc(N(Cc2ccc(C(N)=O)cc2)C(=O)C2CCCN2C(=O)C(NC(=O)C=Cc2ccc(OP(=O)(O)O)cc2)C(C)(C)C)cc1 (centres unmarked) [drawing 70: 4-CH2NHAc, 4-CONH2] | < 1000
CC(=O)NCc1ccc(CN(C(=O)C2CCCN2C(=O)C(NC(=O)C=Cc2ccc(OP(=O)(O)O)cc2)C(C)(C)C)c2ccc(C(N)=O)cc2)cc1 (centres unmarked) [drawing 70: 4-CONH2,4-CH2NHAc] | < 1000

same assay, conditions: Table 5; STAT6 binding

SMILES | IC50 [nM]
CC(=O)NCc1cccc(CN(Cc2cccc(C(N)=O)c2)C(=O)C2CCCN2C(=O)C(NC(=O)C=Cc2ccc(OP(=O)(O)O)cc2)C(C)(C)C)c1 (centres unmarked) [drawing 71: 3-CONH2,3-CH2NHAc] | 1000 to 50000
CC(=O)NCc1cccc(CN(Cc2ccc(C(N)=O)cc2)C(=O)C2CCCN2C(=O)C(NC(=O)C=Cc2ccc(OP(=O)(O)O)cc2)C(C)(C)C)c1 (centres unmarked) [drawing 71: 4-CONH2,3-CH2NHAc] | < 1000
CC(C)(C)C(NC(=O)C=Cc1ccc(OP(=O)(O)O)cc1)C(=O)N1CCCC1C(=O)N(Cc1ccc(C#N)cc1)Cc1ccc(C(N)=O)cc1 (centres unmarked) [drawing 71: 4-CONH2,4-CN] | < 1000
CC(C)(C)C(NC(=O)C=Cc1ccc(OP(=O)(O)O)cc1)C(=O)N1CCCC1C(=O)N(Cc1ccccc1)Cc1ccc(C(N)=O)cc1 (centres unmarked) [drawing 71: 4-CONH2, H] | < 1000
CC(=O)NCc1ccc(CN(Cc2ccc(C(N)=O)cc2)C(=O)C2CCCN2C(=O)C(NC(=O)C=Cc2ccc(OP(=O)(O)O)cc2)C(C)(C)C)cc1 (centres unmarked) [drawing 71: 4-CONH2,4-CH2NHAc] | < 1000

— patent US6426331B1, “Inhibitors of STAT function” (Tularik Inc., priority 1998, dated 2002)
